How the values were obtained:
[1] = design: species or system Beagle dogs; details: dog, in vivo
Method: (§1) Fifty six female Beagle dogs (17 to 18 months old; average body weight 11.4±0.4 kg) were randomly assigned to be supplemented daily with 0, 5, 10 or 20 mg lutein for 17 weeks. The lutein contained 76.66% lutein and 5.23% zeaxanthin. The lutein supplement was resuspended in soybean oil to the appropriate concentration and 1 mL administered perorally at 0800 h daily. Food (200 g/dog/d) was offered immediately after the lutein supplementation. The basal diet shown in Table 1 below met or exceeded the requirements for all essential nutrients (NRC 1985).
All dogs were housed in 2×2 m pens (2 dogs/pen) in a temperature (20 to 22° C.) and light (14 h light) controlled facility. Body weight was recorded at weeks 0, 6, and 12.

[2] = test system: lymphocyte subsets (CD3, CD4, CD8, MHC class II, CD21); test: Lymphocyte subpopulations by flow cytometry, cats; assay type: in vivo, Tabby cats
Method: Blood leukocytes were separated on Histopaque-1119 (Sigma, St. Louis, Mo.) and cells washed three times with phosphate-buffered saline (PBS, pH 7.4). Contaminating RBC were lysed with NH4Cl (8.4 g/L) and cell viability determined by trypan blue exclusion. Lymphocyte subsets were determined by FACScan flow cytometry (Becton Dickinson, San Jose, Calif.) immediately after cell preparation. Isolated PBMC were resuspended to 1×10^7 cells/mL phosphate buffered saline (PBS) supplemented with 2% gamma globulin-free serum, 5% goat serum and 0.2 g/L sodium azide (Baker, Phillipsburg, N.J.). For immunofluorescence analysis, 5×10^5 cells were incubated for 30 minutes on ice with a previously determined optimal concentration of mouse anti-cat primary monoclonal antibody. The antibodies were specific for the following lymphocyte subsets: total T cells (anti-CD3), T-helper cells (anti-CD4), T cytotoxic/suppressor cells (anti-CD8), lymphocytes expressing major histocompatibility complex (MHC) class II antigens (anti-MHC class II), and B cells (anti-CD21). Cells were then washed three times and incubated with a secondary antibody, fluorescein isothiocyanate (FITC)-conjugated goat F(ab′)2 anti-mouse IgG (H+L) (Caltag, Burlingame, Calif.) for 30 minutes on ice to visualize the bound antibody. Stained cells were fixed in 4% paraformaldehyde in preparation for acquisition. Appropriate negative controls were included to correct the level of background fluorescence. Fluorescence analysis was performed on lymphocytes gated by forward and side scatter. Data were expressed as a percentage of positive-staining cells corrected for cells stained nonspecifically with the secondary antibody.

Splenocytes = details: splenocytes from mice injected peritoneally; cited from earlier work
[3] = Plasma extraction and HPLC analysis in dogs (lutein+zeaxanthin, retinol, α-tocopherol); assay type: in vivo, Beagle dogs
Method: as §1
Blood was collected by jugular venipuncture into heparinized evacuated tubes on weeks 0, 2, 4, 8 and 12 and aliquots used for HPLC analysis and for assessing immune responses.
Plasma was extracted for analysis of lutein, zeaxanthin, retinol and α-tocopherol. Briefly, plasma protein was precipitated by adding an equal volume of ethanol containing 0.1% butylated hydroxytoluene (BHT) (Aldrich Chemical Co., Milwaukee, Wis.). The mixture was extracted with 5 mL of a 1:1 mixture of petroleum ether:anhydrous diethyl ether.
The dried residue was resuspended in mobile phase consisting of a 47:47:6 (v:v:v) mixture of HPLC-grade acetonitrile: methanol: chloroform (Fisher Scientific, Fair Lawn, N.J.). Lutein, zeaxanthin and α-tocopherol were quantitated by comparing the area under the curve whereas retinol was quantitated using peak height. The identity of the eluted compounds was confirmed by comparing their absorption spectrum with that of pure standards. Because baseline separation of lutein and zeaxanthin was not accomplished, plasma concentrations were reported as lutein+zeaxanthin.

[4] = test system: lymphocyte subsets (CD5, CD4, CD8, MHC class II, CD21); test: Lymphocyte subsets by flow cytometry, dogs; assay type: in vivo, Beagle dogs
Method: Blood leukocytes were separated using Histopaque-1119 (Sigma, St. Louis, Mo.). Cells were washed three times with phosphate-buffered saline (PBS, pH 7.4) and contaminating erythrocytes were lysed in NH4CI (8.4 g/L). Lymphocyte subsets were determined by flow cytometry (FACScan, Becton Dickinson, San Jose, Calif.). Isolated mononuclear cells were resuspended to 1×10^7 cells/mL in PBS supplemented with 2% gamma globulin-free serum, 5% goat serum and 0.2 g/L sodium azide. For immunofluorescence analysis, a total of 5×10^5 cells were incubated for 30 minutes on ice with optimal concentrations of mouse anti-canine monoclonal antibody (mAb). The mAb used were specific for the following lymphocyte subsets: total T cells (anti-CD5), T-helper cells (anti-CD4), T-cytotoxic/suppressor cells (anti-CD8), lymphocytes expressing major histocompatability complex (MHQ class II antigens (anti-MHC class II), and B cells (anti-CD21). Cells were then washed three times and incubated with a secondary antibody, fluorescein isothiocyanate (FITC)-conjugated goat F(ab′)2 anti-mouse IgG+IgM (H+L) (Caltag, Burlingame, Calif.), for 30 minutes on ice to visualize the bound mAb. Stained cells were fixed in 4% paraformaldehyde in preparation for acquisition. Appropriate negative controls were included to correct for background fluorescence. Data were expressed as the percentage of positive-staining cells corrected for cells stained nonspecifically with the secondary antibody.

[5] = test system: Crandell feline kidney fibroblast; test: NK cytotoxicity assay, cats; assay type: in vivo, Tabby cats
Method: The Crandell feline kidney fibroblast was used as the target cell. Target cells were resuspended to 2×10^5 cells/mL and triplicate 100 μL aliquots were pipetted into a 96-well U-bottom plate (Costar, Cambridge, Mass.) and cells allowed to adhere. Isolated PBMC (effector cells) were then added to the target cells to achieve effector:target cell (E:T) ratios of 25:1, 12.5:1 and 6.25:1. The cell mixture was incubated for 8 hours after which 100 μL Rose Bengal (2.5 g/L in PBS; Sigma, St. Louis, Mo.) were added and incubated at room temperature for 5 minutes. Optical density was measured at 550 nm using an ELISA plate reader. The percentage of NK-specific lysis was calculated as follows:
Specific cytotoxicity (%)=100×{1−[(OD of target cells and effector cells−OD of effector cells)/(OD of target cells)]}

cats = test: Delayed type hypersensitivity (DTH) response in cats; assay type: in vivo, Tabby cats; details: for DTH response to vaccine: week 6, 72 h post-injection

CC1=C[C@H](O)CC(C)(C)[C@H]1/C=C/C(C)=C/C=C/C(C)=C/C=C/C=C(C)/C=C/C=C(C)/C=C/C1=C(C)C[C@@H](O)CC1(C)C [lutein]
Body weight average [1]: 11.4 ± 0.4 kg | Effect on changes in body weight [1]: did not significantly affect | Total number of T cells (CD3) ([2]; cats): did not influence significantly | Percentage of CD21+ B cells ([2]; cats fed 10 mg lutein, week 12): significantly elevated | Percentage of CD8+ T cytotoxic cells ([2]; cats, any of the time periods): not influenced significantly | Percentage of MHC class II+ cells ([2]; cats, any of the time periods): not influenced significantly | Ratio of CD4:CD8 ([2]; cats, any of the time periods): not influenced significantly | Antibody response to T-dependent antigens (Splenocytes): enhanced | Plasma concentrations of lutein+zeaxanthin ([3]; dogs fed 10 and 20 mg lutein, after week 2, more gradually): continued to increase | Plasma lutein+zeaxanthin vs unsupplemented animals ([3]; dogs, weeks 2 through 12, P<0.05): significantly higher | Plasma concentrations of lutein+zeaxanthin ([3]; lutein-supplemented dogs, after 2 weeks of feeding): increased rapidly | CD21+ B cell population ([4]; dogs): did not significantly influence | % CD8+ T cytotoxic cells vs control ([4]; dogs fed 20 mg lutein, week 8): significantly higher | % MHC class II cell populations vs unsupplemented dogs ([4]; dogs fed 20 mg lutein, week 8 and 12): elevated | % CD4+ cells ([4]; dogs fed 5 and 10 mg lutein, week 12): higher | CD8+ population ([4]; dogs, week 12): not influenced | Percentages of CD5+ cells vs unsupplemented controls ([4]; dogs, weeks 4 and 8, statistically significant with 5 and 20 mg lutein): higher | NK cell cytotoxicity ([5]; cats fed 1 mg lutein, week 12 (E:T of 6.25:1) and 8 (E:T of 25:1)): significantly higher | NK cell cytotoxic activity ([5]; cats fed 10 mg lutein, week 8, significant with E:T ratios of 6.25:1 and 25:1): higher | NK cell cytotoxicity ([5]; cats, E:T ratio of 12.5:1): No significant treatment differences | DTH response to vaccine (cats; cats fed 5 or 10 mg lutein): significantly higher | DTH response to Con A (cats; cats, week 6): no significant dietary effect | DTH response to vaccine (cats; cats, all doses): significant dose-related | DTH response to Con A and vaccine (cats; cats, week 12): no significant treatment difference

Reference: patent US20010006673A1, “LUTEIN- CONTAINING SUPPLEMENT AND PROCESS FOR ENHANCING IMMUNE RESPONSE IN ANIMALS” (priority 1998, published 2001)
